# pIC50: −log10 of the molar value.
# Molecular target: T1, human TRPM8 (Homo sapiens, UniProt Q7Z2W7)
# T1 construct: expressed in transfected cells; host or cells: HEK293
# Assay: Menthol-induced Ca2+ influx in HEK293 cells stably expressing human TRPM8
# Assay type: cell-based
# Conditions: 30 microM menthol-induced Ca2+ influx, read-out: IC50 against TRPM8
# Method in brief: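 IC50 values were fitted from 11-point dose-response data averaged over duplicate wells. Compound was added for 5 min to Fluo4-loaded HEK293 cells carrying stable human TRPM8, in HBSS/HEPES pH 7.4 with probenecid. Intracellular Ca2+ change after 30 microM menthol addition was then imaged on FDSS.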
# T1 sequence (Q7Z2W7 whole entry): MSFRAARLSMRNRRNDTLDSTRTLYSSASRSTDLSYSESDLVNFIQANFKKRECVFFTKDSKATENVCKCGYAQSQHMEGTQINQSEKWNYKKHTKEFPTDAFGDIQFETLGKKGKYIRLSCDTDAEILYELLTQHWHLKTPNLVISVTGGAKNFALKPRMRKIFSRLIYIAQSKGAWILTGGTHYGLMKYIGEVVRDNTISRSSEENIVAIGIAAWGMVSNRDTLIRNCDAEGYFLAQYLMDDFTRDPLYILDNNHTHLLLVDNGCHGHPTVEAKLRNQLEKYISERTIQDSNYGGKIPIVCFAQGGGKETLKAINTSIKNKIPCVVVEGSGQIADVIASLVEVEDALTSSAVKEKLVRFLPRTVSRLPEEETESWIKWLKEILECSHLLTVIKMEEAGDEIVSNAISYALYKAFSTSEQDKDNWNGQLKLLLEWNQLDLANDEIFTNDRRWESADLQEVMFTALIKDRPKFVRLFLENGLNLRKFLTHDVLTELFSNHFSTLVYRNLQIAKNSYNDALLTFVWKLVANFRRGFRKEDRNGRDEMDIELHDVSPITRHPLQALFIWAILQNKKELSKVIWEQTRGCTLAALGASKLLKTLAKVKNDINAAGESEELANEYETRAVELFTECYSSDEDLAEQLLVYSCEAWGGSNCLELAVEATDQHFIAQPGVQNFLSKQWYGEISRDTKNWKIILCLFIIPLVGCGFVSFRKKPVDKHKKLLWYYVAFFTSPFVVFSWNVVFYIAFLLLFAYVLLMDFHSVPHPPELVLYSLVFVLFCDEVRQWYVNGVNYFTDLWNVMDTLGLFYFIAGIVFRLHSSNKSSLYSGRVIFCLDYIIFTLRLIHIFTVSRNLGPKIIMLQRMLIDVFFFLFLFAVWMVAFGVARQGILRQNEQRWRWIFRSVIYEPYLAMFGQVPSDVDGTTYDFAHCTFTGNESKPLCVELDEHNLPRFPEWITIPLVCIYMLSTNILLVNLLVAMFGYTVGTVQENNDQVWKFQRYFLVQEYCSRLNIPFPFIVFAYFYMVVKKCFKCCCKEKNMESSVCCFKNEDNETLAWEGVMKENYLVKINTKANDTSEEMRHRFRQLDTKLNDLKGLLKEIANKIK
row,Compound,pIC50
1,Cc1cccc(Oc2ccc(C(=O)CN3C(=O)NC4(CCCCC4)C3=O)cn2)c1 [Example 20-3],> 6.30
2,O=C(CN1C(=O)NC2(CCCCC2)C1=O)c1ccc(OCCNc2ccccc2)nc1 [Example 20-4],> 6.30
3,O=C(CN1C(=O)NC2(CCCCC2)C1=O)c1ccc(Oc2ccccc2Cl)nc1 [Example 20-5],> 6.30
4,O=C(CN1C(=O)NC2(CCC(F)(F)CC2)C1=O)c1ccc(Oc2ccccn2)nc1 [Example 20-6],> 7.00
5,N#Cc1cccc(Oc2ccc(C(=O)CN3C(=O)NC4(CCC(F)(F)CC4)C3=O)cn2)c1 [Example 20-7],> 7.00
6,O=C(CN1C(=O)NC2(CCC(F)(F)CC2)C1=O)c1ccc(Oc2cccc(Cl)c2)nc1 [Example 20-8],> 7.00
7,O=C(CN1C(=O)NC2(CCC(F)(F)CC2)C1=O)c1ccc(Sc2ccccc2)nc1 [Example 20-9],> 6.30
8,"N#Cc1cccnc1Oc1ccc(C(=O)CN2C(=O)NC3(CCC(F)(F)CC3)C2=O)cc1 [Example 21-1, 2-(4-(2-(8,8-difluoro-2,4-dioxo-1,3-diazaspiro[4.5]decan-3-yl)acetyl)phenoxy)nicotinonitrile]",> 7.00
9,"O=C(CN1C(=O)NC2(CCC(F)(F)CC2)C1=O)c1ccc(Oc2ncccc2Cl)cc1 [Example 21-2, 3-(2-(4-((3-chloropyridin-2-yl)oxy)phenyl)-2-oxoethyl)-8,8-difluoro-1,3-diazaspiro[4.5]decane-2,4-dione]",> 7.00
10,Cc1cccnc1Oc1ccc(C(=O)CN2C(=O)NC3(CCC(F)(F)CC3)C2=O)cc1 [Example 21-3],> 6.30
11,Cc1ccnc(Oc2ccc(C(=O)CN3C(=O)NC4(CCC(F)(F)CC4)C3=O)cc2)c1 [Example 21-4],> 6.30
12,N#Cc1cccc(Oc2ccc(C(=O)CN3C(=O)NC4(CCC(F)(F)CC4)C3=O)cc2)n1 [Example 21-5],> 7.00
13,Cc1cccc(Oc2ccc(C(=O)CN3C(=O)NC4(CCC(F)(F)CC4)C3=O)cc2)n1 [Example 21-6],> 6.30
14,Cc1ccnc(Oc2ccc(C(=O)CN3C(=O)NC4(CCC(F)(F)CC4)C3=O)cc2)n1 [Example 21-7],> 6.30
15,N#Cc1nccnc1Oc1ccc(C(=O)CN2C(=O)NC3(CCC(F)(F)CC3)C2=O)cc1 [Example 21-8],> 7.00
16,"Cc1ccnnc1Oc1ccc(C(=O)CN2C(=O)NC3(CCC(F)(F)CC3)C2=O)cc1 [Example 21-11, 8,8-difluoro-3-(2-(4-((4-methylpyridazin-3-yl)oxy)phenyl)-2-oxoethyl)-1,3-diazaspiro[4.5]decane-2,4-dione]",> 6.30
17,"N#Cc1ccnnc1Oc1ccc(C(=O)CN2C(=O)NC3(CCC(F)(F)CC3)C2=O)cc1 [Example 21-12, 3-(4-(2-(8,8-difluoro-2,4-dioxo-1,3-diazaspiro[4.5]decan-3-yl)acetyl)phenoxy)pyridazine-4-carbonitrile]",> 7.00
18,"O=C(CN1C(=O)NC2(CCC(F)(F)CC2)C1=O)c1ccc(Oc2nccs2)cc1 [Example 21-13, 8,8-difluoro-3-(2-oxo-2-(4-(thiazol-2-yloxy)phenyl)ethyl)-1,3-diazaspiro[4.5]decane-2,4-dione]",> 7.00
19,"O=C(CN1C(=O)NC2(CCC(F)(F)CC2)C1=O)c1ccc(Oc2cccnc2)cc1 [Example 21-14, 8,8-difluoro-3-(2-oxo-2-(4-(pyridin-3-yloxy)phenyl)ethyl)-1,3-diazaspiro[4.5]decane-2,4-dione]",> 7.00
20,O=C(CN1C(=O)NC2(CCC(F)(F)CC2)C1=O)c1ccc(Oc2cncnc2)cc1 [Example 21-15],> 6.30
21,O=C(CN1C(=O)NC2(CCC(F)(F)CC2)C1=O)c1ccc(Oc2cccnc2)cc1F [Example 21-16],> 6.30
22,O=C(CN1C(=O)NC2(CCC(F)(F)CC2)C1=O)c1ccc(Oc2cccnc2)c(F)c1 [Example 21-17],> 7.00
23,O=C(CN1CC2(CCC(F)(F)CC2)OC1=O)c1ccc(-n2cnc3cccnc32)cc1 [Example 22-1],> 7.00

row,Compound,pIC50
1,Cc1nc2cccnc2n1-c1ccc(C(=O)CN2CC3(CCC(F)(F)CC3)OC2=O)cc1 [Example 22-2],> 6.30
2,Cc1nc2ccccc2n1-c1ccc(C(=O)CN2CC3(CCC(F)(F)CC3)OC2=O)cc1 [Example 22-3],> 7.00
3,O=C(CN1CC2(CCC(F)(F)CC2)OC1=O)c1ccc(-n2cnc3ccccc32)cc1 [Example 22-4],> 7.00
4,Cc1ccc2nc(C)n(-c3ccc(C(=O)CN4CC5(CCC(F)(F)CC5)OC4=O)cc3)c2n1 [Example 22-6],> 6.30
5,"O=C(CN1C(=O)NC2(CCC(F)(F)CC2)C1=O)c1ccc(-n2c(=O)[nH]c3cccnc32)cc1 [Example 23-1, 8,8-difluoro-3-(2-oxo-2-(4-(2-oxo-1H-imidazo[4,5-b]pyridin-3(2H)-yl)phenyl)ethyl)-1,3-diazaspiro[4.5]decane-2,4-dione]",> 7.00
6,"Cc1ccc2[nH]c(=O)n(-c3ccc(C(=O)CN4C(=O)NC5(CCC(F)(F)CC5)C4=O)cc3)c2n1 [Example 23-2, 8,8-difluoro-3-(2-(4-(5-methyl-2-oxo-1H-imidazo[4,5-b]pyridin-3(2H)-yl)phenyl)-2-oxoethyl)-1,3-diazaspiro[4.5]decane-2,4-dione]",> 7.00
7,O=C(CN1C(=O)NC2(CCC(F)(F)CC2)C1=O)c1ccc(-n2c(C(F)F)nc3cccnc32)cc1 [Example 24-1],> 7.00
8,CCc1nc2cccnc2n1-c1ccc(C(=O)CN2C(=O)NC3(CCC(F)(F)CC3)C2=O)cc1 [Example 24-2],> 6.30
9,O=C(CN1C(=O)NC2(CCC(F)(F)CC2)C1=O)c1ccc(-n2c(C3CC3)nc3cccnc32)cc1 [Example 24-3],> 6.30
10,COCc1nc2cccnc2n1-c1ccc(C(=O)CN2C(=O)NC3(CCC(F)(F)CC3)C2=O)cc1 [Example 24-4],> 6.30
11,Cc1ccc2nc(C(F)F)n(-c3ccc(C(=O)CN4C(=O)NC5(CCC(F)(F)CC5)C4=O)cc3)c2n1 [Example 24-5],> 8.00
12,"O=C(CN1C(=O)NC2(CCC(F)(F)CC2)C1=O)c1ccc(-n2c(C(F)(F)F)nc3cccnc32)cc1 [Example 24-6, 8,8-difluoro-3-(2-oxo-2-(4-(2-(trifluoromethyl)-3H-imidazo[4,5-b]pyridin-3-yl)phenyl)ethyl)-1,3-diazaspiro[4.5]decane-2,4-dione]",> 7.00
13,"Cc1ccc2nc(C(F)(F)F)n(-c3ccc(C(=O)CN4C(=O)NC5(CCC(F)(F)CC5)C4=O)cc3)c2n1 [Example 24-7, 8,8-difluoro-3-(2-(4-(5-methyl-2-(trifluoromethyl)-3H-imidazo[4,5-b]pyridin-3-yl)phenyl)-2-oxoethyl)-1,3-diazaspiro[4.5]decane-2,4-dione]",> 8.00
14,Cc1ccc2nc(CN3CCCCC3)n(-c3ccc(C(=O)CN4C(=O)NC5(CCC(F)(F)CC5)C4=O)cc3)c2n1 [Example 25-3],> 6.30
15,Cc1ccc2nc(CN3CCC3)n(-c3ccc(C(=O)CN4C(=O)NC5(CCC(F)(F)CC5)C4=O)cc3)c2n1 [Example 25-4],> 6.30
16,"COc1nc2cccnc2n1-c1ccc(C(=O)CN2C(=O)NC3(CCC(F)(F)CC3)C2=O)cc1 [Example 26-1, 8,8-difluoro-3-(2-(4-(2-methoxy-3H-imidazo[4,5-b]pyridin-3-yl)phenyl)-2-oxoethyl)-1,3-diazaspiro[4.5]decane-2,4-dione]",> 8.00
17,Cc1ccc2ncn(-c3ccc(C(=O)CN4C(=O)NC5(CCC(F)(F)CC5)C4=O)cc3)c2n1 [Example 26-2],> 7.00
18,COc1nc2ccc(C)nc2n1-c1ccc(C(=O)CN2C(=O)NC3(CCC(F)(F)CC3)C2=O)cc1 [Example 26-3],> 8.00
19,CCOc1nc2ccc(C)nc2n1-c1ccc(C(=O)CN2C(=O)NC3(CCC(F)(F)CC3)C2=O)cc1 [Example 26-4],> 7.00
20,"Cc1nc2ccc(C#N)nc2n1-c1ccc(C(=O)CN2C(=O)NC3(CCC(F)(F)CC3)C2=O)cc1 [Example 27-1, 3-(4-(2-(8,8-difluoro-2,4-dioxo-1,3-diazaspiro[4.5]decan-3-yl)acetyl)phenyl)-2-methyl-3H-imidazo[4,5-b]pyridine-5-carbonitrile]",> 8.00
21,"O=C(CN1C(=O)NC2(CCC(F)(F)CC2)C1=O)c1ccc(-n2c(CO)nc3cccnc32)cc1 [Example 28-4, 8,8-difluoro-3-(2-(4-(2-(hydroxymethyl)-3H-imidazo[4,5-b]pyridin-3-yl)phenyl)-2-oxoethyl)-1,3-diazaspiro[4.5]decane-2,4-dione]",> 6.30
22,"Cc1ccc2nc(CO)n(-c3ccc(C(=O)CN4C(=O)NC5(CCC(F)(F)CC5)C4=O)cc3)c2n1 [Example 28-5, 8,8-difluoro-3-(2-(4-(2-(hydroxymethyl)-5-methyl-3H-imidazo[4,5-b]pyridin-3-yl)phenyl)-2-oxoethyl)-1,3-diazaspiro[4,5]decane-2,4-dione]",> 7.00

# Source: US10093678B2, “Azaspiro derivatives as TRPM8 antagonists” (RaQualia Pharma Inc., priority 2014, dated 2018)
